Measured values: US8952024B2, “Herbicidal pyrimidone derivatives” (E I du Pont de Nemours and Company, priority 2009, dated 2015)

How the values were obtained:
Type in all cases: in vivo
[1] = system: pigweed (Amaranthus retroflexus); assay: Test A pre-/postemergence plant response
Summary of the method: (§1)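 Greenhouse pots of loam/sand received directed preemergence soil sprays or postemergence sprays (plants 2–10 cm, 1–2 leaf stage), compounds formulated in non-phytotoxic solvent with surfactant. Injury was rated visually versus untreated controls after about ten days on a 0 (no effect) to 100 (complete control) scale.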

[2] = system: barnyardgrass (Echinochloa crus-galli); assay: Test A pre-/postemergence plant response
Summary of the method: as §1

[3] = system: Surinam grass (Brachiaria decumbens); assay: Test B pre-/postemergence plant response; conditions: for Surinam Grass plant response rating (0 to 100 scale): 62 g ai/ha, 0 is no effect, 13 to 15 days
Summary of the method: (§2)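 Ratings reflect visual comparison with untreated controls 13 to 15 days after application, from 0 (no effect) to 100 (complete control). Application was preemergence to seeded loam/sand soil or postemergence to 1- to 4-leaf plants, with compound in a non-phytotoxic, surfactant-containing solvent.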

[4] = system: morningglory (Ipomoea coccinea); assay: Test B pre-/postemergence plant response; conditions: for Morningglory plant response rating (0 to 100 scale): 62 g ai/ha, 0 is no effect, 13 to 15 days
Summary of the method: as §2

[5] = system: woolly cupgrass (Eriochloa villosa); assay: Test B pre-/postemergence plant response; conditions: for Cupgrass, Woolly plant response rating (0 to 100 scale): 62 g ai/ha, 0 is no effect, 13 to 15 days
Summary of the method: as §2

[6] = system: large crabgrass (Digitaria sanguinalis); assay: Test B pre-/postemergence plant response; conditions: for Crabgrass, Large plant response rating (0 to 100 scale): 62 g ai/ha, 0 is no effect, 13 to 15 days
Summary of the method: as §2

[7] = system: Italian ryegrass (Lolium multiflorum); assay: Test B pre-/postemergence plant response; conditions: for Ryegrass, Italian plant response rating (0 to 100 scale): 62 g ai/ha, 0 is no effect, 13 to 15 days
Summary of the method: as §2

[8] = system: velvetleaf (Abutilon theophrasti); assay: Test B pre-/postemergence plant response; conditions: for Velvetleaf plant response rating (0 to 100 scale): 62 g ai/ha, 0 is no effect, 13 to 15 days
Summary of the method: as §2

[9] = system: blackgrass (Alopecurus myosuroides); assay: Test B pre-/postemergence plant response; conditions: for Blackgrass plant response rating (0 to 100 scale): 62 g ai/ha, 0 is no effect, 13 to 15 days
Summary of the method: as §2

[10] = system: downy bromegrass (Bromus tectorum); assay: Test B pre-/postemergence plant response; conditions: for Bromegrass, Downy plant response rating (0 to 100 scale): 62 g ai/ha, 0 is no effect, 13 to 15 days
Summary of the method: as §2

[11] = system: yellow nutsedge (Cyperus esculentus); assay: Test B pre-/postemergence plant response; conditions: for Nutsedge, Yellow plant response rating (0 to 100 scale): 62 g ai/ha, 0 is no effect, 13 to 15 days
Summary of the method: as §2

[12] = system: goosegrass (Eleusine indica); assay: Test B pre-/postemergence plant response; conditions: for Goosegrass plant response rating (0 to 100 scale): 62 g ai/ha, 0 is no effect, 13 to 15 days
Summary of the method: as §2

[13] = system: wheat (Triticum aestivum); assay: Test B pre-/postemergence plant response; conditions: for Wheat plant response rating (0 to 100 scale): 62 g ai/ha, 0 is no effect, 13 to 15 days
Summary of the method: as §2

[14] = Postemergence, 125 g ai/ha, 0 to 100 scale where 0 is no effect and 100 is complete control
[15] = Postemergence, 500 g ai/ha, 0 to 100 scale, 0 = no effect, 100 = complete control, approx. ten days
[16] = Preemergence, 125 g ai/ha, 0 to 100 scale, 0 = no effect, 100 = complete control
[17] = Preemergence, 500 g ai/ha, visual injury, 0 to 100 scale (0 no effect, 100 complete control), approx. ten days
[18] = 31 g ai/ha, postemergence, scale 0 to 100, 0 is no effect, 100 is complete control
[19] = postemergence, 100 is complete control
[20] = Postemergence, 250 g ai/ha, scale 0 to 100 (0 no effect, 100 complete control)
[21] = Postemergence, 125 g ai/ha, visual rating after 13 to 15 days, scale 0 (no effect) to 100 (complete control)
[22] = Postemergence, 125 g ai/ha, scale 0 to 100 (0 no effect, 100 complete control)

COCCOCCn1c(-c2ccccc2)ncc(C(=O)C2=C(O)CCCC2=O)c1=O [Compound 91]
50: Plant response rating, Blackgrass [9, 20] | Plant response rating, Nutsedge, Yellow [11, 18] | Plant response rating, Wheat [13, 20]
85: Plant response rating, Surinam Grass [3, 18] | Cupgrass, Woolly plant response rating (0 to 100 scale) [5, 19] | Plant response rating, Goosegrass [12, 20]
30: Plant response rating, Blackgrass [9, 21] | Plant response rating, Bromegrass, Downy [10, 20] | Plant response rating, Goosegrass [12, 18]
20: Plant response rating, Ryegrass, Italian [7, 20] | Blackgrass plant response rating (0 to 100 scale) [9, 19]
5: Ryegrass, Italian plant response rating (0 to 100 scale) [7, 19] | Bromegrass, Downy plant response rating (0 to 100 scale) [10, 19] | Plant response rating, Bromegrass, Downy [10, 21]
98: Surinam Grass plant response rating (0 to 100 scale) [3, 19] | Plant response rating, Surinam Grass [3, 20] | Plant response rating, Morningglory [4, 20] | Plant response rating, Cupgrass, Woolly [5, 21] | Plant response rating, Cupgrass, Woolly [5, 20] | Plant response rating, Crabgrass, Large [6, 21] | Plant response rating, Velvetleaf [8, 18]
0: Plant response rating, Ryegrass, Italian [7, 18] | Plant response rating, Bromegrass, Downy [10, 18] | Plant response rating, Wheat [13, 18]
95: Crabgrass, Large plant response rating (0 to 100 scale) [6, 19]
75: Plant response rating, Morningglory [4, 18] | Plant response rating, Nutsedge, Yellow [11, 20] | Goosegrass plant response rating (0 to 100 scale) [12, 19]
10: Plant response rating, Blackgrass [9, 18] | Wheat plant response rating (0 to 100 scale) [13, 19]
80: Plant response rating, Crabgrass, Large [6, 18]
90: Plant response rating, Pigweed [1, 16] | Plant response rating, Pigweed [1, 17] | Plant response rating, Barnyardgrass [2, 14] | Morningglory plant response rating (0 to 100 scale) [4, 19]
60: Plant response rating, Barnyardgrass [2, 16]
70: Plant response rating, Cupgrass, Woolly [5, 18]
65: Nutsedge, Yellow plant response rating (0 to 100 scale) [11, 19]
100: Plant response rating, Pigweed [1, 14] | Plant response rating, Pigweed [1, 15] | Plant response rating, Barnyardgrass [2, 15] | Plant response rating, Barnyardgrass [2, 17] | Plant response rating, Crabgrass, Large [6, 20] | Velvetleaf plant response rating (0 to 100 scale) [8, 19] | Plant response rating, Velvetleaf [8, 20]

O=C1CCCC(O)=C1C(=O)c1cnc(-c2ccsc2)n(C2CCCCC2)c1=O [Compound 99]
70: Surinam Grass plant response rating (0 to 100 scale) [3, 19] | Plant response rating, Cupgrass, Woolly [5, 18] | Nutsedge, Yellow plant response rating (0 to 100 scale) [11, 19] | Plant response rating, Nutsedge, Yellow [11, 22]
85: Plant response rating, Cupgrass, Woolly [5, 20] | Plant response rating, Crabgrass, Large [6, 18] | Crabgrass, Large plant response rating (0 to 100 scale) [6, 19]
95: Plant response rating, Crabgrass, Large [6, 22] | Plant response rating, Crabgrass, Large [6, 20]
5: Plant response rating, Blackgrass [9, 22] | Plant response rating, Bromegrass, Downy [10, 18] | Bromegrass, Downy plant response rating (0 to 100 scale) [10, 19] | Wheat plant response rating (0 to 100 scale) [13, 19] | Plant response rating, Wheat [13, 22] | Plant response rating, Wheat [13, 20]
15: Plant response rating, Blackgrass [9, 20]
45: Plant response rating, Nutsedge, Yellow [11, 18]
80: Plant response rating, Surinam Grass [3, 20] | Plant response rating, Cupgrass, Woolly [5, 22] | Plant response rating, Goosegrass [12, 20]
25: Plant response rating, Bromegrass, Downy [10, 22] | Plant response rating, Bromegrass, Downy [10, 20]
10: Plant response rating, Barnyardgrass [2, 16]
75: Plant response rating, Surinam Grass [3, 22] | Cupgrass, Woolly plant response rating (0 to 100 scale) [5, 19] | Plant response rating, Nutsedge, Yellow [11, 20] | Plant response rating, Goosegrass [12, 18] | Goosegrass plant response rating (0 to 100 scale) [12, 19] | Plant response rating, Goosegrass [12, 22]
0: Ryegrass, Italian plant response rating (0 to 100 scale) [7, 19] | Plant response rating, Blackgrass [9, 18] | Blackgrass plant response rating (0 to 100 scale) [9, 19]
100: Plant response rating, Pigweed [1, 14] | Plant response rating, Pigweed [1, 15] | Plant response rating, Pigweed [1, 17] | Plant response rating, Morningglory [4, 18] | Morningglory plant response rating (0 to 100 scale) [4, 19] | Plant response rating, Morningglory [4, 22] | Plant response rating, Morningglory [4, 20] | Velvetleaf plant response rating (0 to 100 scale) [8, 19] | Plant response rating, Velvetleaf [8, 22] | Plant response rating, Velvetleaf [8, 20]
90: Plant response rating, Pigweed [1, 16] | Plant response rating, Barnyardgrass [2, 14] | Plant response rating, Barnyardgrass [2, 15] | Plant response rating, Barnyardgrass [2, 17]
20: Plant response rating, Ryegrass, Italian [7, 22] | Plant response rating, Ryegrass, Italian [7, 20]

O=C1CCCC(O)=C1C(=O)c1cnc(C2CCCC2)n(-c2ccccc2)c1=O [Compound 92]
80: Plant response rating, Barnyardgrass [2, 14] | Plant response rating, Morningglory [4, 18] | Plant response rating, Crabgrass, Large [6, 18]
20: Plant response rating, Bromegrass, Downy [10, 21] | Plant response rating, Bromegrass, Downy [10, 20]
65: Surinam Grass plant response rating (0 to 100 scale) [3, 19] | Plant response rating, Cupgrass, Woolly [5, 21] | Nutsedge, Yellow plant response rating (0 to 100 scale) [11, 19]
100: Plant response rating, Pigweed [1, 14] | Plant response rating, Pigweed [1, 15] | Plant response rating, Pigweed [1, 16] | Plant response rating, Pigweed [1, 17] | Plant response rating, Barnyardgrass [2, 17] | Plant response rating, Morningglory [4, 20] | Plant response rating, Crabgrass, Large [6, 20] | Velvetleaf plant response rating (0 to 100 scale) [8, 19] | Plant response rating, Velvetleaf [8, 20]
90: Plant response rating, Barnyardgrass [2, 15] | Crabgrass, Large plant response rating (0 to 100 scale) [6, 19] | Plant response rating, Goosegrass [12, 20]
98: Plant response rating, Crabgrass, Large [6, 21]
5: Plant response rating, Blackgrass [9, 21] | Plant response rating, Blackgrass [9, 20] | Bromegrass, Downy plant response rating (0 to 100 scale) [10, 19]
25: Plant response rating, Surinam Grass [3, 18] | Cupgrass, Woolly plant response rating (0 to 100 scale) [5, 19]
10: Plant response rating, Cupgrass, Woolly [5, 18]
70: Plant response rating, Cupgrass, Woolly [5, 20] | Goosegrass plant response rating (0 to 100 scale) [12, 19]
30: Plant response rating, Ryegrass, Italian [7, 20]
45: Plant response rating, Nutsedge, Yellow [11, 18]
0: Plant response rating, Ryegrass, Italian [7, 18] | Ryegrass, Italian plant response rating (0 to 100 scale) [7, 19] | Plant response rating, Blackgrass [9, 18] | Blackgrass plant response rating (0 to 100 scale) [9, 19] | Plant response rating, Bromegrass, Downy [10, 18] | Plant response rating, Wheat [13, 18] | Wheat plant response rating (0 to 100 scale) [13, 19] | Plant response rating, Wheat [13, 20]
60: Plant response rating, Barnyardgrass [2, 16] | Plant response rating, Goosegrass [12, 18]
95: Morningglory plant response rating (0 to 100 scale) [4, 19] | Plant response rating, Velvetleaf [8, 18]
75: Plant response rating, Surinam Grass [3, 20] | Plant response rating, Nutsedge, Yellow [11, 20]
